Results as given in patent US11434205B2, “Substituted imidazole carboxylate derivatives and the use thereof” (priority 2018, dated 2022).
Read-outs that look alike come from different tables or passages of the source.

Key:
[1] = tested on: secretion of corticosterone, H295R cell line; assay: cells; assay type: cell-based; conditions: for EC50: read-out: EC50 (Corticosterone)
Experimental: (§1) The Effects of the Compounds on Adrenocortical Function In Vitro Test
(§2) Then secretion of the cortisol and corticosterone in the supernatant, was measured using HPLC-MS/MS method to determine whether the compounds of the present invention had adrenotoxic potential.

[2] = tested on: secretion of cortisol, H295R cell line; assay: cells; assay type: cell-based; conditions: for EC50: read-out: EC50 (Cortisol)
Experimental: as §1, §2

11-β-hydroxylase = molecular target: T1, 11-β-hydroxylase (Rattus norvegicus, UniProt P15393); conditions: compared with etomidate; cited from earlier work
T1 sequence (P15393 25-499): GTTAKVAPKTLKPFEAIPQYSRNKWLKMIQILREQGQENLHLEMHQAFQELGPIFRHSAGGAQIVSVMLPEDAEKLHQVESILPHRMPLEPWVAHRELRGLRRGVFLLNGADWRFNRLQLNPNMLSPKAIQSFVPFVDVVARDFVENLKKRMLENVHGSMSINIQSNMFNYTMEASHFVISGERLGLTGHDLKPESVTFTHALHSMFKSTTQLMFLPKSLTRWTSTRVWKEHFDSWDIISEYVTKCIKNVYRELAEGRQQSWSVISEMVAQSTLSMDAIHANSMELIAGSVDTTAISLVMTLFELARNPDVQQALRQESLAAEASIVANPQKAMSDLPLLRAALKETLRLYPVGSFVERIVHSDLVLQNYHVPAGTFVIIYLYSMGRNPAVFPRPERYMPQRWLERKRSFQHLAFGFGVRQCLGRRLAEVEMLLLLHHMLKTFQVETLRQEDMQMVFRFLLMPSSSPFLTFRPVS

[3] = H295R cell line, 0.1-10000 nM, HPLC-MS/MS, Table D3
[4] = H295R cell line, 0.1-10000 nM, HPLC-MS/MS, Table E3
[5] = H295R, 0.1-10000 nM, HPLC-MS/MS

With C[C@H](c1ccccc1)n1cncc1C(=O)O [Etomidate acid, etomidate acid, reference compound] the “Corticosterone as an indicator to determine the presence of inhibition” value (from here on “Corticosterone as an indicator … of inhibition”) [1, 3] was 0, the EC50 [1, 3] was greater than 10 µM and the “Corticosterone as an indicator … of inhibition” value [1, 4] was 0. The EC50 [1, 4] was greater than 10 µM, the EC50 [1, 5] was greater than 10 µM and the “Corticosterone as an indicator … of inhibition” value ([1]; H295R, Table A3) was 0. For the same compound, the “Corticosterone as an indicator … of inhibition” value ([1]; H295R, Table B3) was 0, the “Corticosterone as an indicator … of inhibition” value ([1]; H295R, Table C3) was 0 and the “Cortisol as an indicator to determine the presence of inhibition” value (“Cortisol as an indicator … of inhibition” for short) [2, 3] was 0. The EC50 [2, 3] was greater than 10 µM, the “Cortisol as an indicator … of inhibition” value [2, 4] was 0 and the EC50 [2, 4] was greater than 10 µM. For the same compound, the EC50 [2, 5] was greater than 10 µM, the “Cortisol as an indicator … of inhibition” value ([2]; H295R, Table A3) was 0 and the “Cortisol as an indicator … of inhibition” value ([2]; H295R, Table B3) was 0. The “Cortisol as an indicator … of inhibition” value ([2]; H295R, Table C3) was 0 and the “inhibitory effect on 11-β-hydroxylase” value (11-β-hydroxylase) was “little inhibitory effect”.
